Experimental data taken from the NIST ThermoML archive (doi:10.1016/j.fluid.2009.12.002).
Numbers after ± are expanded uncertainties.

What was measured:
[1] = for mass density: Vibrating tube method; for vapor or sublimation pressure: isothermal bubble-point pressure
[2] = xn = mol fraction of the nth substance listed; settings: Liquid, Vibrating tube method

| SMILES | mass density ([1]; 333.15 K, Gas) [kg/m3] | mass density ([1]; 333.15 K, Liquid) [kg/m3] | vapor or sublimation pressure ([1]; 333.15 K, Liquid) [kPa] | mass density ([1]; 343.15 K, Gas) [kg/m3] | mass density ([1]; 343.15 K, Liquid) [kg/m3] | vapor or sublimation pressure ([1]; 343.15 K, Liquid) [kPa] | mass density ([1]; 353.15 K, Gas) [kg/m3] | mass density ([1]; 353.15 K, Liquid) [kg/m3] | vapor or sublimation pressure ([1]; 353.15 K, Liquid) [kPa] | mass density ([2]; 333.15 K, x1 = 1) [kg/m3] | mass density ([2]; 343.15 K, x1 = 1) [kg/m3] | mass density ([2]; 353.15 K, x1 = 1) [kg/m3] | mass density ([2]; 333.15 K, x2 = 0) [kg/m3] | mass density ([2]; 343.15 K, x2 = 0) [kg/m3] | mass density ([2]; 353.15 K, x2 = 0) [kg/m3] |
| --- | --- | --- | --- | --- | --- | --- | --- | --- | --- | --- | --- | --- | --- | --- | --- |
| Cc1ccccc1C [1,2-dimethylbenzene] | 0.2087 ± 0.1 | 845.839 ± 0.23 | 5.45 ± 0.02 | 0.3149 ± 0.1 | 837.399 ± 0.23 | 8.47 ± 0.03 | 0.4587 ± 0.1 | 828.528 ± 0.24 | 12.71 ± 0.03 |  |  |  |  |  |  |
| Cc1ccccc1C [1,2-dimethylbenzene] + CNC=O |  |  |  |  |  |  |  |  |  | 845.839 ± 0.23 | 837.399 ± 0.23 | 828.528 ± 0.24 |  |  |  |
| Cc1cccc(C)c1 [1,3-dimethylbenzene] | 0.2519 ± 0.1 | 829.305 ± 0.24 | 6.58 ± 0.03 | 0.3779 ± 0.1 | 820.443 ± 0.24 | 10.17 ± 0.03 | 0.5457 ± 0.1 | 811.602 ± 0.24 | 15.12 ± 0.04 |  |  |  |  |  |  |
| Cc1cccc(C)c1 [1,3-dimethylbenzene] + CNC=O |  |  |  |  |  |  |  |  |  | 829.305 ± 0.24 | 820.443 ± 0.24 | 811.602 ± 0.24 |  |  |  |
| Cc1ccc(C)cc1 [1,4-dimethylbenzene] | 0.262 ± 0.1 | 825.539 ± 0.24 | 6.85 ± 0.03 | 0.3903 ± 0.1 | 816.664 ± 0.24 | 10.5 ± 0.03 | 0.5636 ± 0.1 | 807.649 ± 0.24 | 15.61 ± 0.04 |  |  |  |  |  |  |
| Cc1ccc(C)cc1 [1,4-dimethylbenzene] + CNC=O |  |  |  |  |  |  |  |  |  | 825.539 ± 0.24 | 816.664 ± 0.24 | 807.649 ± 0.24 |  |  |  |
| CNC=O [N-methylformamide] |  | 967.461 ± 0.23 | 0.37 ± 0.02 |  | 958.765 ± 0.23 | 0.67 ± 0.02 |  | 949.98 ± 0.23 | 1.15 ± 0.02 |  |  |  |  |  |  |
| CNC=O [N-methylformamide] + Cc1ccc(C)cc1 |  |  |  |  |  |  |  |  |  |  |  |  | 967.461 ± 0.23 | 958.765 ± 0.23 | 949.98 ± 0.23 |
| CNC=O [N-methylformamide] + Cc1cccc(C)c1 |  |  |  |  |  |  |  |  |  |  |  |  | 967.461 ± 0.23 | 958.765 ± 0.23 | 949.98 ± 0.23 |
| CNC=O [N-methylformamide] + Cc1ccccc1C |  |  |  |  |  |  |  |  |  |  |  |  | 967.461 ± 0.23 | 958.765 ± 0.23 | 949.98 ± 0.23 |
